# According to US12268739B2, “Use of toll-like receptor 2 (TLR-2) agonist for modulating human immune response” (Children's Medical Center Corporation, priority 2018, dated 2025):
# Entries after “also recorded” stand apart in the source; their conditions may differ.
# Legend:
# [1] = system: NF-κB reporter THP1 cells; assay: NF-kB-induced luminescence HTS in THP1-Lucia cells (384-well); type: cell-based, human; conditions: ranked at 3.3 μM; ~200,000 compounds tested; listed as 080
# Text: HTS Overview: To identify immunomodulators/adjuvants that robustly activate human immune cells, ˜200,000 small molecules were screening in a THP1 cell-based assay. The chemical libraries screened included known bioactive and commercial libraries from various sources including commercial libraries such as ChemDiv, ChemBridge, and Asinex. All libraries were owned and provided by the Institute of Chemistry and Cell Biology (ICCB)—Longwood (Harvard Medical School). The project primary screen incorporated two distinct arms: a) a luciferase-based screen which corresponds to the relative activation of the NF-κB reporter; and b) a fluorescence-based screen, corresponding to the phenotypic adherence, a distinct marker of cell activation, of the human monocytic THP-1 cell lines. Described herein are small molecules identified in the screen that induce NF-kB activity based on a luciferase-based THP-1 cell screen.
# (§1) THP-1 Cell Line and Culture Conditions. The THP1-Lucia™ cell line was obtained from Invivogen (San Diego, CA). THP1-Lucia cells, which are human monocytic cells derived from the blood of a child with leukemia, contain an NF-kB-inducible Luc reporter construct. This allows NF-kB activation to be measured by quantifying the luminescence from the secreted luciferase enzyme. THP1-Lucia cells were cultured in RPMI 1640 supplemented with 10% non-heat inactivated fetal bovine serum (FBS), 10 mM HEPES, 1.0 mM sodium pyruvate, 50 ug/ml Pen-Strep, and 100 ug/mL Normocin™. Once cultured, the cells were stored in a 37° C. incubator with 5% CO2 and a humidified atmosphere. Cells were passaged every 2-3 days and not allowed to exceed a concentration of 2.0×10^6 cells/ml media.
# NF-kB-induced Luminescence Assay. THP1-Lucia cells between passage 15 and 18 and suspended in culture medium were dispensed into 384-well black clear-bottom plates (Corning 3712) at 30,000 cells/30 μl/well using a Combi liquid dispenser. To allow comparison to a benchmark small molecule with known immune stimulating activity, cells at the same concentration were stimulated with 50 μM R848, a TLR7/8 agonist, in 0.3% DMSO and added to every other well of column 24, which was left empty of cells, by multichannel pipette at the same volume. Five μl of 700 nM Phorbol myristate acetate (PMA) in THP1 culture media and 2.3% DMSO, a known peripheral blood cell mitogen, was added to every other well of column 23 by multichannel pipette (final concentration in well: 100 nM in 0.3% DMSO). Five μl of THP1 culture media with 2.3% DMSO was added to the remaining wells of column 23 by multichannel pipette (final concentration 0.3% DMSO). One hundred nl aliquots of library compounds diluted in 100% DMSO were transferred from their original 384-well plates to the assay plates using a Seiko pin transfer machine. Each library plate was pinned in duplicate, yielding two assay plates with identical conditions for comparison. Plates were then incubated for 24 hours at 37 C with 5% CO2 in humid conditions. Following incubation, 10 μL of supernatant was removed from each well and transferred to a white plate (Corning 3570) using a Vprep liquid transfer machine. 10 μL of recombinant Lucia protein (Invivogen) diluted 1:2000 in THP1 culture media was added to empty well 24P. Using a Combi liquid dispenser, 50 μL/well of Quanti-Luc substrate (Invivogen) diluted 1:3 in sterile water was added to the assay plate. Immediately after adding the substrate, the luminescence was read using a PerkinElmer Envision plate reader.
# [2] = biological target: T1, human TLR2 (Homo sapiens, UniProt O60603); assay: HEK-Blue human TLR cell screening (NF-κB SEAP reporter); type: cell-based; conditions: compounds at 10 μM, fold change over negative controls; listed as 080
# T1 construct: expressed in transfected cells; host or cells: HEK-Blue (human embryonic kidney) cells with an NF-kB-inducible SEAP reporter
# T1 sequence (O60603 21-784): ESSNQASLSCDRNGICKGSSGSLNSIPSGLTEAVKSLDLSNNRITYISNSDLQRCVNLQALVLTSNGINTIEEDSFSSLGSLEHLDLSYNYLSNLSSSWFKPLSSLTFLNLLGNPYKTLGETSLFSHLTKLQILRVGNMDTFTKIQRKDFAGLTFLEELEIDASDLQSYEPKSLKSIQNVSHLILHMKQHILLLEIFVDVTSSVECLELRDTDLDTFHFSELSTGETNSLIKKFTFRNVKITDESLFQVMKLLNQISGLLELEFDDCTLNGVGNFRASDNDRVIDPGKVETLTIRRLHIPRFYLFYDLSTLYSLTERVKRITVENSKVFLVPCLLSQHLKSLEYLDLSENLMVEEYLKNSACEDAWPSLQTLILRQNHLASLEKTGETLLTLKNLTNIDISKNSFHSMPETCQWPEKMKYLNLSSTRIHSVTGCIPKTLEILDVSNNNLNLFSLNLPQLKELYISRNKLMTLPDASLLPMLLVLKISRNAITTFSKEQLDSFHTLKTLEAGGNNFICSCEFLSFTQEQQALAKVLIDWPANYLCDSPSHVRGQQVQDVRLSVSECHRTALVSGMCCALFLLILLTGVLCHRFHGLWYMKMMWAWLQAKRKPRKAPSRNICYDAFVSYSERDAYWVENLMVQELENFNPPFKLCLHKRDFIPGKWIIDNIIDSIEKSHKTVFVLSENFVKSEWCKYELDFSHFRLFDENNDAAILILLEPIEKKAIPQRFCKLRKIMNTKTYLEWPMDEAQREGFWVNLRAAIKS
# Protocol: HEK cell screening. Human embryonic kidney (HEK)-Blue cell lines expressing human TLRs (hTLRs) and a secreted embryonic alkaline phosphatase (SEAP) reporter under the control of an NF-κB-inducible promoter were cultured in 96-well plates (50,000-75,000 cells/200 μl/well) and stimulated with the indicated compounds at 10 µM or positive controls. The media added to the wells is designed for detection of NF-κB-induced SEAP expression. After 16-24 hours of incubation optical density (OD) was read at 650 nm on a Molecular Devices SpectraMax 340PC absorbance detector. Positive controls employed in this assay were: heat-killed Listeria monocytogenes (1×10^8 cells/ml) for hTLR2, Poly (I:C) HMW (1 μg/ml) for hTLR3, ? E. coli K12 LPS (100 ng/ml) for hTLR4, S. typhimurium flagellin (100 ng/ml) for hTLR5, CL307 (1 μg/ml) for hTLR7, CL075 (1 μg/ml) for hTLR8 and CpG ODN 2006 (1 μg/ml) for hTLR9.
# [3] = system: THP1-NF-κB cells; assay: THP1-NF-κB cell stimulation for 24 hours, secreted luciferase luminescence; type: cell-based, human
# Protocol: as §1
# PBMCs were isolated from blood using a Ficoll density gradient. PBMCs either used fresh or were stored at 5×10^7 cells per vial in 1 mL RPMI containing 20% autologous plasma and 10% DMSO at −80° C. until use. Stimulation plates were prepared by transferring 0.66 μl of DMSO-dissolved compounds (30 or 7.5 mM) to each well of a round bottom 96-well plate. PBMCs isolated from human adult donors or THP1-NF-κB cells were resuspended at a concentration of 10^5 cells/200 μl of RPMI supplemented with 10% of platelet-poor plasma or THP1 culture medium, respectively. 200 μl of the cell suspension were transferred to each well resulting in a final compound concentration of 100 or 25 μM. After 24 hours of incubation (37° C., 5% CO2), plates were spun down (500×g, room temperature, 5 minutes) and supernatants were harvested for further analysis.
compound,measurement,setting,value
CNC(=O)c1c(NC(=O)c2ccc(S(=O)(=O)N(C)C)cc2)sc2c1CCC2 [Compound 80],Efficacy in activating NF-κB in THP1 cells (screening hits),[1],most effective NF-κB activators; also recorded: most effective NF-kB activators
same,Activation of human TLR2 (NF-κB activation in TLR-expressing HEK-Blue cells),[2],activate human TLR2; also recorded: activated the human TLR2-expressing human embryonic kidney (HEK)-Blue cell line
same,Activation of THP1 cells,[3]; 384 and 96 well assay,induced activation of THP1 cells
same,"THP1 cells (relative luminescence units, N = 4) Comp at 25 uM","[3]; NF-κB-dependent luminescence, compound at 25 uM, 24 hours",8280 relative luminescence units
same,"THP1 cells (relative luminescence units, N = 4) Comp at 100 uM","[3]; NF-κB-dependent luminescence, compound at 100 uM, 24 hours",12174 relative luminescence units
